Measured values reported in US20050025727A1, “Natural sunlight photostable composition” (priority 2003, published 2005).

Assay: Photostability in natural sunlight: residual sunscreen active by HPLC, 2 mg/cm^2 film on microscope slides
Format: physicochemical
Conditions: for Residual Octisalate, Residual %: natural sunlight as in Example 1, formula not named (context: Formula 5)
Experimental: As described above, a sunscreen composition of SPF X is considered to be “photostable” when at least 70%, preferably at least 75%, more preferably at least 80% of each sunscreen active in the composition remains after exposure of the composition to Y SEDS of natural sunlight, where Y is about ½ X. “Photostability” is assessed by (i) assaying the pre-UVR exposure concentration of each sunscreen active present in the sunscreen composition by high-performance liquid chromatography (“HPLC”); (ii) applying a sample of the sunscreen composition at a concentration of 2 mg/cm^2 (a standard concentration used in SPF testing) to a non-coated microscope slide or similar non-reactive surface (e.g., glass or quartz plate); (iii) irradiating the sample in natural sunlight according to a dosing regimen as illustrated in Table 1; (iv) assaying the concentration of each sunscreen active post-UVR exposure. More specifically, after the desired UVR exposure, each slide is removed from sunlight and placed in a sealed Blue Max™ polypropylene conical tube (Becton Dickinson) or similar container, and stored in an area to prevent further exposure to natural sunlight. When an irradiation series is completed, the residual content of each sunscreen active is determined via HPLC, such as the Perkin Elmer Model 200, equipped with a 785 UVN detector, and a C18 column. A detector wavelength of 310 nm and an eluent solution of […] may be used. The sunscreen composition is extracted from the slide with isopropanol or other suitable solvent and sonicated for a minimum of 10 minutes to completely solubilize the sunscreen actives. The solution is then filtered with a 0.45 um GHP13 mm syringe filter. The above analytical procedure may be modified in a manner that would be obvious to the person of ordinary skill in the art. To compare the photostability of Formulas 1 and 2, a uniform 2 mg/cm^2 film of sunscreen product was placed on multiple microscope slides. The slides were exposed to direct sunlight for time intervals corresponding to 1, 2, 4, 8, and 16 SEDs as measured by a Solar Light PMA 2100 detector. (Unless otherwise indicated, all sunlight exposures were in Ormond Beach, Fla.). Slides were removed from the sun after the desired exposure and stored in Blue Max™ polypropylene conical tubes. Upon completion of the test series, samples were dissolved in a suitable solvent, sonicated and then assayed via HPLC. Unless otherwise indicated, all assays were performed by HPLC with oxybenzone, if present, as the internal standard.

## CCCCC(CC)COC(=O)c1ccccc1O (stereo not drawn) [Octisalate]
Exposed to natural sunlight as in Example 1
  Photostability of octisalate: photolabile
1 SED
  Residual Octisalate, Residual %: 96%
2 SEDs
  Residual Octisalate, Residual %: 100%
4 SEDs
  Residual Octisalate, Residual %: 92%
8 SEDs
  Residual Octisalate, Residual %: 80%
16 SEDs
  Residual Octisalate, Residual %: 55%
